“Also recorded” adds a separate entry of the source.
Legend:
PR-A = PR-A mRNA expression by RT-PCR in treated YHES cells; format: cell-based, human
Experimental: (§1) The YHES cells were harvested by trypsinization and seeded in 12-well at 5×10^4 cells/well plates and were pretreated with E2 and P as described above. […] Total RNA was isolated from treated cells using TRIzol reagent (Invitrogen, Carlsbad, Calif.) according to the manufacturer's instructions. The integrity of total RNA was inspected on an agarose gel. One microgram of total RNA from each sample was treated with DNase I to remove potential DNA contamination and then reverse-transcribed using Superscript II Reverse Transcriptase (Invitrogen). First-strand cDNA obtained from RNA samples was stored at −80° C. until use. To measure the mRNA expression levels of AR, PR-A, PR-B, Fas and FasL in each cell culture, semi-quantitative PCR analysis was performed.
(§2) Quantitative real-time RT-PCR was carried out on an ABI 7900 DNA sequencer (Applied Biosystems), and monitored by SYBR Green I (Qiagen, Valencia, Calif.). The PCR products of the expected size were visualized on a 0.8% agarose gel. The relative mRNA level of each gene was calculated using relative quantitation of gene expression (Applied Biosystems, Foster City, Calif.) with 18s as an endogenous control. The reproducibility of the quantitative measurements was evaluated by two independent cDNA syntheses. The means and standard deviations of the replicated measurements were calculated and presented as mean ±s.d.

PR-B = PR-B mRNA expression by RT-PCR in treated YHES cells; format: cell-based, human
Experimental: as §1, §2

endometriotic cells = experiment: Sensitivity of endometriotic versus endometrial cells to TSA (unpublished observation); format: cell-based; details: Wu and Guo
Fas = Fas mRNA expression by RT-PCR in treated YHES cells; format: cell-based, human; details: TSA 10 μM, time not stated
Experimental: as §1, §2

AR [1] = experiment: Western blot of AR protein in treated YHES cells; format: cell-based, human; details: 16 hrs; TSA 10 μM, CDB 100 μM, NAC 10 mM
Experimental: Western blot analysis was performed to measure protein expression of β-actin, ERα, ERβ, and AR. […] Whole cell lysate was prepared as previously described (44) by using RIPA lysis buffer containing 50 mM Tris, pH 7.4, 150 mM NaCl, 12 mM EDTA, 1% Triton X-100, 0.5% sodium deoxycholate, and 0.1% SDS. To avoid degradation, a protease inhibitor cocktail III (Sigma) was added at 2%. Total protein was quantified using a BCA protein assay kit (Pierce, Rockford, Ill.). Ten microgram of total protein was separated by electrophoresis on 10% SDS-polyacrylamide gels. The protein was then transferred onto PVDF membranes (Milipore, Bedford, Mass.). […] The blot was then subsequently incubated with primary antibody rabbit anti-human ERα (Santa Cruz Biotechnology, CA), rabbit anti-human ERβ (Zymed Laboratories, South San Francisco, Calif.), rabbit anti-β-actin (Cell Signaling Technology, Beverly, Mass.), or rabbit ant-human AR (Santa Cruz Biotechnology, CA), respectively, in blocking solution (5% nonfat dry milk plus PBS) for 2 hr at room temperature. After washing with PBS plus 0.5% Tween-20, the membranes were then incubated with the secondary antibody goat anti-rabbit IgG (H+L)-HRP (Santa Cruz Biotechnology, CA) at 1:8000 dilution in blocking solution for 2 h at room temperature. […]

[2] = tested on: YHES cells pretreated with H2O2; experiment: H2O2-induced cell proliferation, MTT assay; format: cell-based, human; details: 100 μM, H2O2 1 μM, 48 hours, vs H2O2 only
Experimental: MTT assay was performed after 48 hours of treatment.
(§3) The YHES cells were harvested by trypsinization and seeded in 96-well plate at ˜1×10^4 cells/well. The cells were allowed to attach to the plate for overnight at 37° C. with 5% C02 in a humidified incubator. Then they were pretreated with physiological concentration of E2 (10^-9M) and P (10^-7M) for 24 hr to maintain hormonal responsiveness. […] Cell growth was valuated by the MTT assay (ATCC, Manassas, Va.). MTT assay was performing according to the manufacturer's instructions, and in triplicate to generate mean values. Cell numbers in the untreated control were arbitrarily assigned as 1. The relative cell growth was expressed as fold increase/decrease relative to the control. Data were presented as mean values from three independently repeated experiments.
The addition of H202 was meant to mimic the oxidative stress as reported in endometriosis. […] RU486 suppressed cell proliferation by 75% at the concentration of 100 μM.

[3] = tested on: YHES cells (immortalized human endometrial stromal cell line); experiment: MTT cell proliferation assay in YHES cells; format: cell-based; details: 48 hr
Experimental: An immortalized human endometrial stromal cell line was maintained following Krikun et al. (Krikun et al. 2004 Endocrinology 145:2291-6). Cells were maintained in phenol red-free DMEM/F12 (Gibco, CA) medium supplemented with 10% charcoal-dextran stripped FBS (Biomeda, CA), 1 μl/ml sodium pyruvate (Gibco, CA) and 1× Pen/Strep/Fungizone (Gibco, CA), at 37° C. with 5% C02 in a humidified incubator.
as §3

YHES cells = experiment: Long-term culture and morphology after treatment; format: cell-based, human
Excerpt: The micrographs of the first two rows were taken using 20× magnification, and those of the third row were taken using 10× magnification. The micrographs of the first row and the first two micrographs of second row were obtained using differential inference contrast (DIC) optic; the others were obtained without the DIC optic. […]

COX-2 = details: cited from earlier work
endometrial cells = details: immortalized human endometrial stromal cells; cited from earlier work
AR [4] = experiment: AR mRNA expression by RT-PCR in treated YHES cells; format: cell-based, human
Experimental: as §1, §2

FasL = FasL mRNA expression by RT-PCR in treated YHES cells; format: cell-based, human
Experimental: as §1, §2

[5] = tested on: endometrial stromal cells; details: in vitro; cited from earlier work
[6] = 8 h, 18 h and 36 h, TSA 10 μM, CDB 100 μM, NAC 10 mM, semi-quantitative RT-PCR

CC(/C=C/C(=O)NO)=C\[C@@H](C)C(=O)c1ccc(N(C)C)cc1 [TSA, trichostatin A]
PR-A mRNA expression level vs untreated control (PR-A; [6]): increased | PR-A expression, comparison among treatment groups (PR-A; overall, real-time RT-PCR): greatest increase | PR-B mRNA expression level vs untreated control (PR-B; [6]): increased | PR-B expression, comparison among treatment groups (PR-B; overall, real-time RT-PCR): greatest increase | sensitivity of endometriotic cells relative to endometrial cells (endometriotic cells): over 100 fold | Fas expression vs control group (Fas): lower than the control group | AR protein level vs control group (AR [1]): highest expression | suppression of H2O2-induced cell proliferation [2]: 50% | reduction of cell proliferation as compared with controls ([3]; 100 μM): ~90% | effect on cell proliferation ([3]; across 100, 10, 1, 0.1 μM): strong concentration-dependent antiproliferative effect | cell morphology (YHES cells; 24 h after the treatment): signs of apparent apoptosis | recovery judged by morphology (YHES cells; four weeks after the treatment, TSA and RU486 at 100 μM): did not recover | effect on IL-1β-induced COX-2 expression (COX-2): suppresses IL-1β-induced COX-2 expression | effect on cell cycle (endometrial cells): induce cell cycle arrest | AR mRNA expression level vs untreated control (AR [4]; [6]): increased | decrease of AR expression as compared with the control group (AR [4]; 36 h of treatment, real-time RT-PCR): about 50% | increase in FasL expression as compared with the controls (FasL; 18 h after the treatment): ~25 fold | FasL expression (FasL; especially 18 and 36 h after the treatment): dramatic increase | effect on proliferation [5]: suppresses proliferation of endometrial stromal cells; also recorded: suppressing proliferation of endometrial and endometriotic cells in vitro

Source: US20070287676A1, “Diagnosis and treatment of endometriosis” (priority 2006, published 2007)
